From US20250115565A1, “SOLID CRYSTALLINE FORMS OF HELICASE-PRIMASE INHIBITORS AND PROCESS OF PREPARATION THEREOF” (INNOVATIVE MOLECULES GMBH, priority 2022, published 2025)
Structures can show the parent of a compound that is named as a salt.

Columns and labels:
[1] = Relative bioavailability of crystalline and salt forms after single oral dose in male mice (Example 6); type: in vivo; details: male C57bl/6 mice, single oral dose adjusted to 10 mg/kg free IM-250, suspension in 0.5% HPMC in PBS, blood
Method: The relative bioavailability of crystalline and different salt forms versus suspended IM-250 (derived from a DMSO stock solution) after single dose oral administration in male C57bl/6 mice was examined. Animals (3 per group) had food withdrawn approximately 2 h before administration. The suspension was prepared from a DMSO stock solution, which was diluted 1:20 with 0.5% HPMC in PBS, ultrasonificated and orally administered with a gavage volume of 5 mL/kg. The suspensions of crystalline and different salt forms were prepared directly by adding powder to 0.5% HPMC in PBS, ultrasonificated and orally administered with a gavage volume of 5 mL/kg. Blood samples were taken at 0.5 h, 1 h, 2 h, 5 h, 12 h and 24 h via capillary microsampling and bioanalytics was measured via non-chiral LC-MS. The area-under-curve (AUC0-24 h) and relative bioavailability towards the IM-250 suspension was calculated. The doses for the salts were adjusted to 10 mg/kg free IM-250.

[2] = Physical accelerated stability by XRPD and DSC after temperature and humidity stress (Example 7); type: physicochemical
Method: XRPD analysis was performed on a Bruker D2 Phase diffractometer using a copper anti-cathode, a mono-crystalline silicone sample holder and a position sensitive detector (LynxExe). Powder sample was loaded on a flat mono-crystalline silicone sample holder in a way to avoid preferred orientation and to sensure planarity of the speciem surface. Instrument operation conditions were as follows: ambient temperature and atmosphere; X-ray generator voltage 30 kV and intensity 10 mA; X-ray source: target Copper; emission radiation Kα1=0.15406 nm, Kα2=0.15444 nm, ratio Kα2/Kα1=0.5, KB filter radiation Nickel; Slit: anti-divergence […], Sollers slit 2.5°; Goniometer: angular sector analyzed from 4° to 45° or 4° to 50° for 20, step size 0.07° for 20; Sample holder rotation speed: 30 rpm; Detection: exposition time per step size of goniometer 1 s.
DSC analysis was performed on a Q1000 TA Instruments analyzer. The sample to be analyzed was weighed in an aluminium capsule, which was then crimped and put into the calorimeter oven. Instrument operation conditions were as follows: heater ramp 10° C./min; final temperature 230° C. or 240° C.; carrier gas: nitrogen (Messer “qualité Azote 5.0”) with flow rate of 50 mL/min.
(§1) The chemical and physical accelerated stability of the crystalline material was studied in order to anticipate potential stability issues upon storage or ageing. Crystals were stored for 1 month at 40° C./75% relative humidity (RH) and were also stored for 1 month at 60° C. (and % HR<10% RH). The chemical stability was assessed by HPLC by external standardization versus a freshly prepared (non-stressed) standard solution. For that purpose, six samples (exactly weighted) are stored for each condition: 3 for the 2-weeks stability and 3 for the 4-weeks stability. The physical stability was also assessed by XRPD, DSC analyses by comparing the XRPD and DSC profiles of stressed samples to those of a non-stressed sample. For that purpose, two more samples (one per time point) are stored in each condition (respectively 40° C./75% RH and 60° C.).

[3] = Chemical accelerated stability by HPLC after temperature and humidity stress (Example 7); type: physicochemical; details: for % of unchanged compound left: HPLC UV 285 nm, 3 assays
Method: as §1

[4] = Relative bioavailability and brain exposure of d3-IM-250 HCl salt versus IM-250 HCl salt in male mice (Example 12); type: in vivo; details: mouse, male C57bl/6 mice, single oral dose 10 mg/kg; for Kp at 24 h: brain and whole blood, 24 h post dose, read-out: blood/brain ratio; for AUC(0-t): read-out: AUC0-24; for Cmax: suspension in 0.5% HPMC in PBS; for concentration at 24 h: brain 24 h post dose after PBS perfusion, read-out: brain level @ 24 h
Method: Animals (3 per group) had food withdrawn approximately 2 h before administration of 10 mg/kg of the test items. The suspensions were prepared directly by adding powder to 0.5% HPMC in PBS, ultrasonificated and orally administered with a gavage volume of 5 mL/kg. Blood samples (20 μL) were taken at 0.5 h, 1 h, 2 h, 5 h, 12 h and 24 h via capillary microsampling, collected from the tail vein into Li-heparin tubes. The samples were frozen on dry ice within 1-2 min of sampling and stored at −20° C. until LC-MS/MS analysis measured via non-chiral LC-MS. After 24 h post dose, animals were sacrificed and perfused with PBS until PBS was transparent and brain was collected and stored at −20° C. until processed for LC-MS analysis to determine the brain/blood exposure. The peak blood concentration (Cmax), elimination half-life (t1/2), area-under-curve (AUC0-24 h) and blood/brain ratio (as an easily obtainable surrogate parameter for nerve tissue exposure) was determined.

[5] = ICH long term and accelerated stability testing (Example 8); type: physicochemical
Method: The long term and accelerated chemical and physical stability was assessed at a Contract Manufacturing Organization. IM-250 HCl salt samples were primary packaged in double PE bags (50 μm, Semadeni, e.g. cat. #2439 with each tag tied with plastic twist). The secondary package was a HDPE-drum closed with a HDPE screw cap (CurTec). The storage conditions were 25±2° C./60±5% relative humidity and 40±2° C./75±5% relative humidity.

[6] = at least 4 weeks after storage at 40° C./75% RH and at 60° C.

For Cc1nc(N(C)C(=O)Cc2ccc(-c3cc(F)ccc3F)cc2)sc1[S@@](C)(=N)=O [IM-250 Napadisylate], which AUC0-24 h [1] is on record?
Its AUC0-24 h is 48241 ng·h/mL.

For Cc1nc(N(C)C(=O)Cc2ccc(-c3cc(F)ccc3F)cc2)sc1[S@@](C)(=N)=O [IM-250 Free base Form I, (S)-2-(2′,5′-Difluoro-[1,1′-biphenyl]-4-yl)-N-methyl-N-(4-methyl-5-(S-methylsulfon-imidoyl)thiazol-2-yl)acetamide], which “DSC Enthalpy transition” value ([2]; 40° C./75% RH, 2 wk) is on record?
Its value is -77 J/g.

What about the “DSC melting endotherm Temperature Onset” value ([2]; 40° C./75% RH, 2 wk) of the same compound?
Its value is 163 °C.

What about the “DSC melting endotherm Temperature Peak” value ([2]; 40° C./75% RH, 2 wk) of the same compound?
Its value is 165 °C.

What about the “DSC Enthalpy transition” value ([2]; 40° C./75% RH, 4 wk) of the same compound?
The value was -80 J/g.

What about the “DSC melting endotherm Temperature Onset” value ([2]; 40° C./75% RH, 4 wk) of the same compound?
Its value is 163 °C.

What about the “DSC melting endotherm Temperature Peak” value ([2]; 40° C./75% RH, 4 wk) of the same compound?
Its value is 165 °C.

And the “DSC Enthalpy transition” value ([2]; 60° C., 2 wk)?
Its value is -85 J/g.

And the “DSC melting endotherm Temperature Onset” value ([2]; 60° C., 2 wk)?
The value was 163 °C.

And the “DSC melting endotherm Temperature Peak” value ([2]; 60° C., 2 wk)?
The value was 164 °C.

What about the “DSC Enthalpy transition” value ([2]; 60° C., 4 wk) of the same compound?
The value was -80 J/g.

And the “DSC melting endotherm Temperature Onset” value ([2]; 60° C., 4 wk)?
The value was 163 °C.

And the “DSC melting endotherm Temperature Peak” value ([2]; 60° C., 4 wk)?
Its value is 165 °C.

And the “physical stability as a bulk powder” value [2, 6]?
Its value is “physically stable”.

What about the “DSC Enthalpy transition” value ([2]; no stress, initial analysis) of the same compound?
Its value is -83 J/g.

What about the “DSC melting endotherm Temperature Onset” value ([2]; no stress, initial analysis) of the same compound?
The value was 163 °C.

And the “DSC melting endotherm Temperature Peak” value ([2]; no stress, initial analysis)?
Its value is 164 °C.

And the AUC0-24 h [1]?
Its AUC0-24 h is 7683 ng·h/mL.

And the “% of unchanged compound left” value ([3]; 40° C./75% RH, 2 wk)?
The value was 99.4%.

What about the “% of unchanged compound left” value ([3]; 40° C./75% RH, 4 wk) of the same compound?
Its value is 100.2%.

And the “% of unchanged compound left” value ([3]; 60° C., 2 wk)?
The value was 99.6%.

And the “% of unchanged compound left” value ([3]; 60° C., 4 wk)?
Its value is 101.4%.

What about the “chemical stability as a bulk powder” value [3, 6] of the same compound?
Its value is “chemically stable”.

What does the source list for [2H]C([2H])([2H])c1nc(N(C)C(=O)Cc2ccc(-c3cc(F)ccc3F)cc2)sc1[S@@](C)(=N)=O [d3-IM-250 HCl salt]?
Kp at 24 h [4]: 0.49 ± 0.1; AUC(0-t) ([4]; whole blood, blood): 28600 ng·h/mL; Cmax ([4]; whole blood, blood): 2570 ng/mL; concentration at 24 h [4]: 568 ng/g

What does the source list for Cc1nc(N(C)C(=O)Cc2ccc(-c3cc(F)ccc3F)cc2)sc1[S@@](C)(=N)=O [IM-250 HCl salt]?
AUC0-24 h [1]: 68289 ng·h/mL; Assay (HPLC, % w/w, as-is) ([5]; 6 months 25° C./60% RH): 97.9%; Chiral purity (HPLC area %) ([5]; 6 months 25° C./60% RH): 99.9%; Color and apperance ([5]; 6 months 25° C./60% RH): white to off-; Purity (HPLC area %) ([5]; 6 months 25° C./60% RH): 99.2%; Water content (% w/w) ([5]; 6 months 25° C./60% RH): 0.08%; Assay (HPLC, % w/w, as-is) ([5]; 6 months 40° C./75% RH): 98.6%; Chiral purity (HPLC area %) ([5]; 6 months 40° C./75% RH): 99.9%; Color and apperance ([5]; 6 months 40° C./75% RH): white to off-; Identity by XRPD ([5]; 6 months 40° C./75% RH): conforms to; Purity (HPLC area %) ([5]; 6 months 40° C./75% RH): 99.1%; Water content (% w/w) ([5]; 6 months 40° C./75% RH): 0.10%; Assay (HPLC, % w/w, as-is) ([5]; Initial): 98.5%; Chiral purity (HPLC area %) ([5]; Initial): 99.8%; Color and apperance ([5]; Initial): white to off-; Identity by XRPD ([5]; Initial): conforms to; Purity (HPLC area %) ([5]; Initial): 99.2%; Water content (% w/w) ([5]; Initial): 0.08%; physical stability as a bulk powder ([5]; at least 6 month after storage at 25° C. and at 40° C.): physically stable; Kp at 24 h [4]: 0.6 ± 0.2; half-life ([4]; whole blood, blood): 5.7 h; AUC(0-t) ([4]; whole blood, blood): 14400 ng·h/mL; Cmax ([4]; whole blood, blood): 1210 ng/mL; concentration at 24 h [4]: 175 ng/g

For Cc1nc(N(C)C(=O)Cc2ccc(-c3cc(F)ccc3F)cc2)sc1[S@@](C)(=N)=O [suspended IM-250 from DMSO, (S)-2-(2′,5′-Difluoro-[1,1′-biphenyl]-4-yl)-N-methyl-N-(4-methyl-5-(S-methylsulfon-imidoyl)thiazol-2-yl)acetamide], which AUC0-24 h [1] is on record?
The AUC0-24 h was 66406 ng·h/mL.
